Source: patent US9458122B2, “Process for purifying crude furan 2,5-dicarboxylic acid using hydrogenation” (Eastman Chemical Company, priority 2012, dated 2016)

Assay: solubility of FDCA in water at different temperatures
Assay type: physicochemical
Settings: ambient pressure, as water temperature increases beyond 130° C. (FIG. 2)
Protocol: FIG. 2 depicts the solubility of FDCA in water at different temperatures.
Suitable dissolution temperatures are those effective to dissolve the desired amount of FDCA solids into solution. The hydrogenation solvent composition may be added at (by pre-heating) or heated in the dissolution zone to a temperature of at least 120° C. under a pressure and time sufficient to allow for at least 80 wt. % dissolution, although to reduce the time required for dissolution, it is desirable that the hydrogenation solvent composition temperature is at least 130° C., or at least 135° C., or at least 140° C., or at least 150° C.

With `O=C(O)c1ccc(C(=O)O)o1` [FDCA, Furan 2,5-dicarboxylic acid] the “solubility of FDCA in water” value was “increases dramatically”.
